From patent US5820881A, “Microspheres of diamide-dicarboxylic acids” (Emisphere Technologies, Inc., priority 1995, dated 1998)
Entries after “also recorded” stand apart in the source; their conditions may differ. Counter-ions that a name gives are not always drawn. Like-named read-outs stand apart in the source and are kept apart here.

Experiments:
Type in all cases: physicochemical
[1] = Microsphere formation (Li2CO3 solution mixed with aqueous citric acid; microscopic examination); settings: for Microsphere formation / self-assembly: aqueous salt solution + citric acid; for Diameter of spheres: from 10 μm to submicrons, light microscopy
Protocol: The bis-amide dicarboxylic acid prepared according to the method of Example 4 was dissolved in 0.1 mL of aqueous Li2 CO3 (0.1M) to yield a clear solution of the lithium salt in deionized water. 50 μL of the 0.1M solution was mixed with 50 μL of 1M aqueous citric acid and shaken. A white suspension was generated.
The method of Example 17 was followed, substituting the bis-amide dicarboxylic acid prepared according to the method of Example 5. A white suspension was generated.
The method of Example 17 was followed, substituting the bis-amide dicarboxylic acid prepared according to the method of Example 6. A white suspension was generated.
The method of Example 17 was followed, substituting the bis-amide dicarboxylic acid prepared according to the method of Example 15. A white suspension was generated.

[2] = Concentration dependence of microsphere formation (turbidity, % transmittance at 600 nm); settings: for Concentration of amide above which a dense suspension (% T < 0.5) of microspheres is formed: 500 mM citric acid (pH 2.4)
Protocol: A stock solution containing the lithium salt of the diamide prepared according to the method of Example 4 was prepared by stepwise addition of exactly two equivalents of a standardized solution of LiOH (stored under argon to prevent precipitation of lithium carbonate). The final concentration of the dilithium salt of the diamine was 100 mM, and the pH was always between 7.0 and 8.0. The solution was filtered through a 0.2 μm membrane prior to use. An appropriate amount of the 100 mM stock solution was diluted with deionized water to 500 μL. Microsphere formation was then initiated by addition of an equal volume of 1M citric acid, so that the final concentration ranged from 0 to 50 mM dilithium diamide in 500 mM citric acid with the pH below 2.5. Turbidity was assessed over this range of concentrations by measuring % transmittance at 600 nm. […]
(§1) Each of the compounds of Examples 4-6 and 15 was evaluated by monitoring the change in the solution turbidity, while altering the pH at a fixed Phe amide concentration or by holding the pH constant and varying the concentration of the amide substrate. Each concentration dependence was determined in 500 mM citric acid from a plot of the solution transmittance (% T) vs. concentration. […] The influence of pH on solution turbidity was studied in solutions containing 50 mM in 500 mM lithium citrate buffers. The percent transmittance (% T) was <0.5% at pH 2.67 and >95% at pH 3.26. The pKas were determined by titration of each Phe amide substrate. As expected, the pKas of these Phe diamide diacids were all very similar.

[3] = pH dependence of microsphere formation (turbidity, % transmittance at 600 nm); settings: for pH at which % T is > 95%: amide concentration 50 mM in 500 mM Li citrate
Protocol: 500 μL of 100 mM dilithium diamide solution prepared according to the method of Example 21 was mixed with an equal volume of one of a series of 1M lithium citrate buffers containing between 0 to 1 equivalent of lithium hydroxide so that the final measured pH of the mixture ranged from ca. 2.4 to 4.0. Turbidity was assessed over this pH range by measuring % transmittance at 600 nm.
The method of Example 25 was followed substituting the bis-amide dicarboxylic acid prepared according to the method of Example 5.
The method of Example 25 was followed substituting the bis-amide dicarboxylic acid prepared according to the method of Example 6.
The method of Example 25 was followed substituting the bis-amide dicarboxylic acid prepared according tot he method of Example 15.
as §1

[4] = pKa determination by titration
Protocol: as §1

[5] = SEM/TEM examination of microcapsules (tannic acid / OsO4 fixation)
Protocol: The sodium salt of the bis-amide dicarboxylic acid of Example 6 was prepared. A white suspension was prepared by combining 100 μL of 0.43M citric acid and 50 μL of a 0.1M aqueous solution of the sodium salt of the diamide. The aqueous suspension was deposited on polylysine-coated glass coverslips and fixed with 2% OsO4 for 4 hours. The sample was washed with distilled water, air dried and sputter coated with gold. SEM photographs are illustrated in FIGS. 3a and 3b.
A white suspension was also prepared by adding a solution containing 50 μL of a 0.86M citric acid and 50 μL of 3 wt. % tannic acid to 50 μL of a 100 mM aqueous solution of the sodium salt of the diamide. The pH was lowered from 7.7 to 2.4. The aqueous solution was deposited on a Nucleopore filter and fixed with 4% OsO4 for 4 hours. The sample was washed with distilled water and 95% EtOH and was air dried. The sample was dispersed in 100% LR white resin and polymerized in an oven at 60° C. TEM photographs are illustrated in FIG. 4.
Estimates of the microcapsule shell thickness (150 nm) would require approximately 100 molecules of the diamide of Example 6 oriented end-to-end to traverse the microcapsule shell. However, a stacking of the bis amides seems more likely. A stacked array would allow for a greater number of assembled tetrapeptides to traverse the capsule shell. […] However, some tannic acid may be intercalated in the microsphere wall.

| Compound | Diameter of spheres [1] | Concentration of amide above which a dense suspension (% T < 0.5) of microspheres is formed [2] | pH at which % T is > 95% [3] | pKa ([4]; read-out: pKa1) | pKa ([4]; read-out: pKa2) | Microsphere formation / self-assembly [1] | other results |
| --- | --- | --- | --- | --- | --- | --- | --- |
| CC(C)(C(=O)N[C@@H](Cc1ccccc1)C(=O)O)C(=O)N[C@@H](Cc1ccccc1)C(=O)O [Example 5, bis(Nα-amido-L-phenylalanine) 1,1-dimethyl malonate] | ≤ 10 μm | 25000 µM | 3.26 | 3.55 | 4.62 | formation of tiny spheres | – |
| O=C(O)[C@H](Cc1ccccc1)NC(=O)C1(C(=O)N[C@@H](Cc2ccccc2)C(=O)O)CC1 [Example 6, bis(Nα-amido-L-phenylalanine) 1,1 -cyclopropane dicarboxylate] | ≤ 10 μm | 13000 µM | 3.26 | 3.53 | 4.5 | formation of tiny spheres | Incorporation of tannic acid into the microsphere shell [5]: Little tannic acid was incorporated into the microsphere shell; Molecules oriented end-to-end required to traverse the microcapsule shell ([5]; shell thickness 150 nm): approximately 100 molecules; Estimated microcapsule shell thickness ([5]; sodium salt, citric acid + tannic acid, TEM): ~150 nm |
| O=C(N[C@@H](Cc1ccccc1)C(=O)O)C(=O)N[C@@H](Cc1ccccc1)C(=O)O [Example 8, bis(Nα-amido-L-phenylalanine) oxalate] | – | – | – | – | – | neither the oxalic derivative of Example 8 nor the succinic analogue of Example 12 did; also recorded: did not form microspheres | – |
| O=C(O)CCC(=O)N[C@@H](Cc1ccccc1)C(=O)O [Example 11, (Nα-amido-L-phenylalanine) monosuccinate] | – | – | – | – | – | did not form microspheres | – |
| O=C(CCC(=O)N[C@@H](Cc1ccccc1)C(=O)O)N[C@@H](Cc1ccccc1)C(=O)O [Example 12, bis(Nα-amido-L-phenylalanine) succinate] | – | – | – | – | – | neither the oxalic derivative of Example 8 nor the succinic analogue of Example 12 did; also recorded: does not self assemble; also recorded: did not form microspheres | – |
| O=C(/C=C/C(=O)N[C@@H](Cc1ccccc1)C(=O)O)N[C@@H](Cc1ccccc1)C(=O)O [Example 16, bis(Nα-amido-L-phenylalanine) fumarate] | – | – | – | – | – | did not form microspheres | – |

Now from value to compound, other results behind:

| Diameter of spheres [1] | Concentration of amide above which a dense suspension (% T < 0.5) of microspheres is formed [2] | pH at which % T is > 95% [3] | pKa ([4]; read-out: pKa1) | pKa ([4]; read-out: pKa2) | Compound | Microsphere formation / self-assembly [1] | other results |
| --- | --- | --- | --- | --- | --- | --- | --- |
| ≤ 10 μm | 30000 µM | 3.26 | 3.67 | 4.7 | O=C(CC(=O)N[C@@H](Cc1ccccc1)C(=O)O)N[C@@H](Cc1ccccc1)C(=O)O [Example 4, bis(Nα-amido-L-phenylalanine) malonate] | formation of tiny spheres; also recorded: generated microcapsules | % transmittance, clear solution ([2]; 500 mM citric acid, before transition at 30 mM, 600 nm): > 95 % T; % transmittance, dense suspension of microcapsules ([2]; 500 mM citric acid, diamide above 30 mM, 600 nm): 0.2 % T; Percent transmittance (% T) at pH 2.67 ([3]; 50 mM in 500 mM lithium citrate buffers, pH 2.67): < 0.5%; Percent transmittance (% T) at pH 3.26 ([3]; 50 mM in 500 mM lithium citrate buffers, pH 3.26): > 95%; Estimated number of diamide molecules per one anionic species sufficient to abort assembly ([3]; estimated from pKa and pH measurements): ~30 molecules |
| ≤ 10 μm | 23000 µM | 3.26 | 3.7 | 4.87 | O=C(/C=C\C(=O)N[C@@H](Cc1ccccc1)C(=O)O)N[C@@H](Cc1ccccc1)C(=O)O [Example 15, bis(Nα-amido-L-phenylalanine) maleate] | formation of tiny spheres; also recorded: generated microcapsules | – |
